One test has as its system FaDu. Description: Growth inhibition of FaDu human squamous carcinoma cell line. Type of test: cell-based.
For test [1], the target named is T1, Pc DHFR (Pneumocystis carinii, UniProt P16184).
T1 sequence (P16184 1-206): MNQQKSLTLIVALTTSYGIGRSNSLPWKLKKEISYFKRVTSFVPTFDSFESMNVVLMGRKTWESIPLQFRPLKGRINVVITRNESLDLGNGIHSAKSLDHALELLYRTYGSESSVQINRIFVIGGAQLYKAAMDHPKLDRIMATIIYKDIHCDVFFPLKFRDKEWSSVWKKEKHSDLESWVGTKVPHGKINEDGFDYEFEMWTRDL
Type of test: biochemical. Conditions: for Selectivity Ratio: RL DHFR/Pc DHFR: Table 7, IC50 RL DHFR divided by IC50 Pc DHFR; for Selectivity ratio rl/pc: IC50 rlDHFR/IC50 pcDHFR; for Selectivity Ratio RL/Pc: Table 16. As for the experimental part:
(§1) The selectivity ratio is a measure of the selectivity of a compound for Pc DHFR or Tg DHFR and is expressed as the IC50 value of the DHFR from rate liver (RL) divided by the IC50 value of either the Pc DHFR or the Tg DHFR, depending on which organism the compounds are being tested against. For example, the selectivity ratio of a compound is calculated by the following formula: [formula]

A further test concerns the target T2, Tg DHFR (Toxoplasma gondii, UniProt Q07422).
T2 sequence (Q07422 1-610): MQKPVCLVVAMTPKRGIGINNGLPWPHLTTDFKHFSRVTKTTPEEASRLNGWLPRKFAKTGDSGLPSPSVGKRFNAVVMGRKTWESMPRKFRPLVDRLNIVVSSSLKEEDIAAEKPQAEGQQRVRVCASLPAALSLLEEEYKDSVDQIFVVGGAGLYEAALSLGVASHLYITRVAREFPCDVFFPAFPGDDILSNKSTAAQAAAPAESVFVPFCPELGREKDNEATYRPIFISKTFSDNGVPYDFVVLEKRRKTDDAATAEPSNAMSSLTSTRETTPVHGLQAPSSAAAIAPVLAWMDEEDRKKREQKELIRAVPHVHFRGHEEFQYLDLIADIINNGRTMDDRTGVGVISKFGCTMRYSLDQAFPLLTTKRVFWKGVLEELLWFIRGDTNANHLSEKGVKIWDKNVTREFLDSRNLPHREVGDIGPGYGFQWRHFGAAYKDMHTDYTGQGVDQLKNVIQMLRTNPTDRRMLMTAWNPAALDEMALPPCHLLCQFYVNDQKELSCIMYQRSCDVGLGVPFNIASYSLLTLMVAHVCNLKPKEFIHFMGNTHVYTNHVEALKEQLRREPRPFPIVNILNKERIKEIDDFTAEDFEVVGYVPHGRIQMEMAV
Description: biochemical. Type of test: biochemical. Particulars: for Selectivity Ratio: RL DHFR/Tg: IC50 RL DHFR divided by IC50 Tg DHFR. On the procedure:
as §1

The next test deals with T3, RL DHFR (Rattus norvegicus, UniProt Q920D2).
T3 construct: Toxoplasmosis gondii (Tg) and rat liver (RL); from tissue; host or cells: rat liver
T3 sequence (Q920D2 1-187): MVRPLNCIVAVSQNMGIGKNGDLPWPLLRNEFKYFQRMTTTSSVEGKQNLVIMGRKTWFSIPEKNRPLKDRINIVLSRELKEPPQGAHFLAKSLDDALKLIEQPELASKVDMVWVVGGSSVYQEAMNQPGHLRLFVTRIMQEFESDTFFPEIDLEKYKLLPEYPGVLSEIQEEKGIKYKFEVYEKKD
Kind of test: Inhibition of DHFR from rat liver. The test is classed as biochemical. As for the experimental part: as §1

The target in test [2] is T1, Pc DHFR. Kind of test: biochemical.
Another test concerns the target L. casei DHFR (Lacticaseibacillus casei, UniProt P00381). Description: Inhibition of Lactobacillus casei DHFR. The test is classed as biochemical. Conditions: Table 17; read-out: L. casei DHFR IC50.
A further test deals with T4, CCRF-CEM DHFR (Homo sapiens, UniProt P00374).
T4 construct: DHFR isolated from human CCRF-CEM leukemic cells; endogenous in cells; host or cells: CCRF-CEM human leukemic cells
Kind of test: Inhibition of DHFR isolated from human CCRF-CEM leukemic cells. The test is classed as biochemical. Conditions: Table 17.

In a further test the target is human recombinant TS (Homo sapiens, UniProt P04818). Kind of test: Inhibition of human recombinant TS. Conditions: Table 17; read-out: Human REC TS IC50. Type of test: biochemical.
Another test relates to CCRF-CEM cells. Kind of test: Growth inhibition of CCRF-CEM human leukemia cells, continuous exposure. Type of test: cell-based. Particulars: Table 19, continuous exposure (0 to 120 hours), read-out: Growth inhibition EC50, CCRF-CEM.
The subject of another test is R30dm cells. Kind of test: Growth inhibition of R30dm subline (decreased polyglutamate synthase). Type of test: cell-based. Conditions: Homo sapiens, Table 19, continuous exposure (0 to 120 hours), read-out: Growth inhibition EC50, R30DM.
A further test has as its system A253. Description: Growth inhibition of A253 human squamous carcinoma cell line. The test is classed as cell-based. Particulars: Table 19, continuous exposure (0 to 120 hours). As for the experimental part: The performance of these compounds was evaluated against MTX.
In test [3] the target is T5, CCRF-CEM human leukemia cell folylpolyglutamate synthetase (Homo sapiens, UniProt Q05932).
T5 construct: substrates for human leukemia cell CCRF-CEM folylpolyglutamate synthetase; endogenous in cells; host or cells: CCRF-CEM human leukemia cells
T5 sequence (Q05932 43-587): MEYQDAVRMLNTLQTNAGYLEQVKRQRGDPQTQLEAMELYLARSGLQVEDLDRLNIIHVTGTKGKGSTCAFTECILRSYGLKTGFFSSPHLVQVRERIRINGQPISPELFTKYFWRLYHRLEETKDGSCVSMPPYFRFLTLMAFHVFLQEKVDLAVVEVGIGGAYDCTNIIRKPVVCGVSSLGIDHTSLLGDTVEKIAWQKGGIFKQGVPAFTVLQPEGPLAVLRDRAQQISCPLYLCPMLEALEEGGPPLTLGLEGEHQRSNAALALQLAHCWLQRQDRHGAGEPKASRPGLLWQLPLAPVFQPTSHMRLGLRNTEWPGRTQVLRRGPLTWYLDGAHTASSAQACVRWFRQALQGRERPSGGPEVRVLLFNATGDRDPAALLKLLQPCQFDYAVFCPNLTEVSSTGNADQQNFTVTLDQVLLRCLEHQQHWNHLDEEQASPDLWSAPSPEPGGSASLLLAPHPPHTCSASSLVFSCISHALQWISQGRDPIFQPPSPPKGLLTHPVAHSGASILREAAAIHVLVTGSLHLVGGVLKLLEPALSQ
Description: Substrate activity for CCRF-CEM folylpolyglutamate synthetase. Conditions: Table 18. The test is classed as biochemical. As for the experimental part:
Aminopterin is a classical 2,4-diamino antifolate substrate.
Compounds 33 and 34 were also evaluated for their substrate activity in CCRF-CEM human leukemia folylpolyglutamate synthetase; the compounds were compared against aminopterin.

A further test has as its system R1 cells. Kind of test: Growth inhibition of R1 subline (increased DHFR). Type of test: cell-based. Conditions: Homo sapiens.
The next test deals with R2 cells. Kind of test: Growth inhibition of R2 subline (MTX-transport deficient). The test is classed as cell-based. Conditions: Homo sapiens.
The mark [4] stands for this setting: Table 15, continuous (120 hours) exposure, read-out: Growth inhibition EC50, FaDu.
Where [5] appears, read: Table 7, read-out: Tg DHFR IC50.
[6] abbreviates: Table 7, read-out: RL DHFR IC50.
The mark [7] stands for this setting: Table 7, read-out: Pc DHFR IC50.
Setting [8] is: Table 16, read-out: Tg DHFR IC50.
The mark [9] stands for this setting: Table 25, read-out: Inhibitor Concentrations (IC50) tgDHFR.
Where [10] appears, read: Table 25, read-out: Inhibitor Concentrations (IC50) rlDHFR.
Where [11] appears, read: Table 16, read-out: Pc DHFR IC50.
The mark [12] stands for this setting: Table 25, read-out: Inhibitor Concentrations (IC50) pcDHFR.
[13] abbreviates: read-out: Growth inhibition EC50.

This note sets out measurements from US6962920B2, “Pyrimidine derivatives and methods of making and using these derivatives” (Duquesne University of the Holy Ghost, priority 1992, dated 2005).

For orientation: EC50 means the concentration needed to bring the measured effect to its halfway point.

Read-outs that look alike come from different tables or passages of the source.

Chain of human recombinant TS (P04818 whole entry): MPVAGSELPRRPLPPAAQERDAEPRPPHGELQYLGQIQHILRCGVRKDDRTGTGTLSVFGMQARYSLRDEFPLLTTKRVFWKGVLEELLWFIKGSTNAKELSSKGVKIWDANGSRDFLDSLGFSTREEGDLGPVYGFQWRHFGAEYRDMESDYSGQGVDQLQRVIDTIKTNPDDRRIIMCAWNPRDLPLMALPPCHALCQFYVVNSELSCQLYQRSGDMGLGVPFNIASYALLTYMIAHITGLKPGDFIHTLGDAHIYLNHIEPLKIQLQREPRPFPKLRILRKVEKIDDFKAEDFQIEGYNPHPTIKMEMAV
T4 sequence (P00374 whole entry): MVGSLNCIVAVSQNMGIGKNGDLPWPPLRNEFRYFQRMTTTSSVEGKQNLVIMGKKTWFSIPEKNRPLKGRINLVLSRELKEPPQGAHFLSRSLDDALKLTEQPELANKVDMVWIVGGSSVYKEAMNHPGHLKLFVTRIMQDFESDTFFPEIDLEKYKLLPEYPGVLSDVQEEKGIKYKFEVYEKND
Chain of L. casei DHFR (P00381 whole entry): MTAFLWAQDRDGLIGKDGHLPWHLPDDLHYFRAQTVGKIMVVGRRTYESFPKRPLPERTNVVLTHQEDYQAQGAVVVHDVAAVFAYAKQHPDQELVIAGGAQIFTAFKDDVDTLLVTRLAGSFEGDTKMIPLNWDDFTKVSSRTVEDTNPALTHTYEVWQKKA

With `CN(Cc1ccc(S(=O)(=O)N2CCOCC2)cc1)c1ccc2c3c(cccc13)C(=N)N2` [AG331], the EC50 in the test with FaDu (setting [4]) turned out to be 1 ± 0.1 µM.
As for `COc1cc(NCc2c[nH]c3nc(N)nc(N)c23)cc(OC)c1OC` [Compound 1, 2,4-diamino-5-[(3′,4′,5′-trimethoxyanilino)methyl]pyrrolo[2,3-d]pyrimidine], the “Selectivity Ratio: RL DHFR/Pc DHFR” value at Pc DHFR [1] was less than 2.4. Also, the “Selectivity Ratio: RL DHFR/Tg” value at Tg DHFR (Table 7) is 7.0. Moreover, the IC50 was 8.1 µM at Tg DHFR (setting [5]), 56.3 µM at RL DHFR (setting [6]) and greater than 23 µM on Pc DHFR [2] (setting [7]).
The matching figures for `COc1ccc(NCc2c[nH]c3nc(N)nc(N)c23)cc1` [Compound 3, 2,4-diamino-5-[(4′-methoxyanilino)methyl]pyrrolo[2,3-d]pyrimidine]: 0.23, 10.5, 6 µM, 63 µM and 279 µM.
As for `Nc1nc(N)c2c(CCc3ccc(C(=O)N[C@@H](CCC(=O)O)C(=O)O)cc3)coc2n1` [Compound 33, N-[4-[2-(2,4-diaminofuro[2,3-d]pyrimidin-5-yl)ethyl]-benzoyl]-L-glutamic acid], the IC50 was 0.1 µM at L. casei DHFR, 0.25 µM against CCRF-CEM DHFR and 220 µM at human recombinant TS. Besides, the EC50 came to 0.29 µM with CCRF-CEM cells; 4.25 µM in the test with R30dm cells; 0.54 ± 0.09 µM in the test with A253; 0.018 ± 0.02 µM in the test on FaDu (Homo sapiens, FaDu, Table 19, continuous exposure (0 to 120 hours), read-out: Growth inhibition EC50, FaDu). Further, the “Vmax(rel)” value in test [3] is 0.65 ± 0.01.
With `Nc1nc(N)c2c(CNCc3ccc(C(=O)N[C@@H](CCC(=O)O)C(=O)O)cc3)coc2n1` [Compound 34], the IC50 on CCRF-CEM DHFR was 30.5 µM; on human recombinant TS, 63 µM. For the same compound, the EC50 with CCRF-CEM cells stood at 48 µM. Further, the “Vmax(rel)” value in test [3] is on record as 0.6.
Turning to `Nc1nc(N)c2c(CNc3ccc4ccccc4c3)coc2n1` [Compound 163, 2-4-Diamino-5-[(2-naphthylamino)methyl]furo[2,3-d]pyrimidine], the Selectivity ratio rl/pc on Pc DHFR [1] worked out at 0.89. At Pc DHFR [1], the “Selectivity Ratio RL/Pc” value came out at 0.89. For the same compound, the Selectivity ratio rl/tg on Tg DHFR (IC50 rlDHFR/IC50 tgDHFR) turned out to be 0.96. Also, at Tg DHFR (Table 16), the “Selectivity Ratio RL/Tg” value turned out to be 0.96. Besides, the IC50 is 38 µM on Tg DHFR (setting [8]); 38 µM at Tg DHFR (setting [9]); 36.5 µM on RL DHFR (Table 16, read-out: RL DHFR IC50); 36.5 µM at RL DHFR (setting [10]); 41 µM at Pc DHFR [2] (setting [11]); 41 µM on Pc DHFR [2] (setting [12]).
`Nc1nc(N)c2c(COc3ccc4ccccc4c3)coc2n1` [Compound 164, 2,4-Diamino-5-[(2-naphthoxy)methyl]furo[2,3-d]pyrimidine]: on Pc DHFR [1], the Selectivity ratio rl/pc worked out at 4.31. In addition, the “Selectivity Ratio RL/Pc” value on Pc DHFR [1] worked out at 4.31. The IC50 at Tg DHFR (setting [8]) was greater than 42 µM; on Tg DHFR (setting [9]), greater than 42 µM; at RL DHFR (setting [10]), 60.3 µM; on Pc DHFR [2] (setting [11]), 14 µM; on Pc DHFR [2] (setting [12]), 14 µM.
With `Nc1nc(N)c2c(CNc3cc(Cl)ccc3Cl)coc2n1` [Compound 169, 2,4-Diamino-5-[(2′,5′-dichloroanilino)methyl]furo[2,3-d]pyrimidine], the Selectivity ratio rl/pc on Pc DHFR [1] worked out at 1.4. Moreover, the “Selectivity Ratio RL/Pc” value at Pc DHFR [1] is 1.4. For the same compound, the IC50 on RL DHFR (setting [10]) stood at 71.9 µM; at Pc DHFR [2] (setting [11]), 50.9 µM; at Pc DHFR [2] (setting [12]), 50.9 µM.
For `CN(Cc1cnc2nc(N)nc(N)c2n1)c1ccc(C(=O)N[C@@H](CCC(=O)O)C(=O)O)cc1` [MTX, methotrexate, reference compound], the EC50 turned out to be 0.675 ± 0.035 µM in the test on R1 cells (setting [13]); 0.595 ± 0.005 µM in the test with R1 cells (read-out: Growth inhibition EC50, R1); 6.445 ± 0.055 µM with R1 cells (read-out: Growth inhibition EC50, R1 (↑ DHFR)); 1.6 ± 0.1 µM in the test on R2 cells (setting [13]); 3.1 ± 0.1 µM in the test with R2 cells (read-out: Growth inhibition EC50, R2); 2.35 ± 0.55 µM in the test on R2 cells (read-out: Growth inhibition EC50, R2 (↓ transport)). Moreover, the EC50 was found to be 0.031 ± 0.002 µM with FaDu (Homo sapiens, FaDu, 120 h, read-out: Growth inhibition EC50, FaDu); 0.0113 ± 0.0018 µM with FaDu (Homo sapiens, FaDu, read-out: Growth inhibition EC50); 0.017 ± 0.002 µM with FaDu (Homo sapiens, FaDu, read-out: Growth inhibition EC50, FaDu).
Regarding `C#CCN(Cc1ccc2nc(N)[nH]c(=O)c2c1)c1ccc(C(=O)N[C@@H](CCC(=O)O)C(=O)O)cc1` [PDDF], in the test on FaDu (setting [4]), the EC50 was 1.7 ± 0.2 µM.
